# Legend:
# [1] = tested on: Plasmodium falciparum; experiment: Antimalarial activity against CQ-resistant Plasmodium falciparum K1; assay type: functional, organism-based
# [2] = tested on: Plasmodium falciparum; experiment: Antimalarial activity against Plasmodium falciparum assessed as parasite growth inhibition incubated for 36 to 40 hrs by JSB staining based analysis; assay type: functional, organism-based
# [3] = tested on: Plasmodium falciparum; experiment: Antimalarial activity against Plasmodium falciparum Dd2 infected in A+ human erythrocytes assessed as reduction in parasite growth incubated for 72 hrs by SYBR Green I staining based analysis; assay type: functional, organism-based; settings: Dd2, Erythrocyte
# [4] = tested on: Plasmodium falciparum; experiment: Antimalarial activity against Plasmodium falciparum 3D7 infected in A+ human erythrocytes assessed as reduction in parasite growth incubated for 72 hrs by SYBR Green I staining based analysis; assay type: functional, organism-based; settings: 3D7, Erythrocyte
# [5] = Cytotoxicity against human erythrocytes; assay type: toxicity, cell-based, Erythrocyte
# [6] = tested on: Plasmodium falciparum; experiment: Antimalarial activity against CQ-resistant Plasmodium falciparum Dd2; assay type: functional, organism-based
# [7] = tested on: Plasmodium falciparum; experiment: Antimalarial activity against Plasmodium falciparum K1 infected in A+ human erythrocytes assessed as reduction in parasite growth incubated for 72 hrs by SYBR Green I staining based analysis; assay type: functional, organism-based; settings: K1, Erythrocyte
# [8] = tested on: Plasmodium falciparum; experiment: Antimalarial activity against Plasmodium falciparum; assay type: functional, organism-based
# [9] = tested on: Plasmodium falciparum; experiment: Antimalarial activity against Plasmodium falciparum 3D7 at asexual erythrocytic stage assessed as parasite growth inhibition measured after 24 hrs by [3H]-hypoxanthine incorporation assay; assay type: functional, organism-based
# [10] = tested on: Plasmodium falciparum; experiment: Antiplasmodial activity against CQ-sensitive Plasmodium falciparum NF54; assay type: functional, organism-based
structure (smiles),measurement,setting,value
CO[C@@H]1C(=O)N(c2ccc(OCc3cn(Cc4ccccc4)nn3)cc2)[C@@H]1c1ccc(OCc2cn(Cc3ccccc3)nn2)cc1,IC50,[1],850 nM
Cc1ccccc1COc1ccc(-n2cc(COc3cc(=O)oc4ccccc34)nn2)cc1,IC50,[2],0.53 µg/mL
O=c1ccc2ccc(OCc3cn(-c4ccc(OCc5ccc(Cl)cc5)cc4)nn3)cc2o1,IC50,[2],0.86 µg/mL
C[C@H]1[C@H](OC(=O)CCC(=O)O)O[C@@H]2O[C@@]3(C)CC[C@H]4[C@H](C)CC[C@@H]1[C@@]24OO3 [ARTESUNATE],EC50,[3],10.9 nM
same,EC50,[4],14.4 nM
same,CC50,[5],> 100 µg/mL
same,IC50,[6],0.002 µg/mL
same,EC50,[7],5.2 nM
O=c1cc(OCc2cn(-c3ccc(OCc4cccc([N+](=O)[O-])c4)cc3)nn2)c2ccccc2o1,IC50,[2],0.6 µg/mL
CC1=C(C(=O)Nc2ccccc2)C(c2ccc(OCc3cn(Cc4ccccc4)nn3)cc2)n2c(nc3ccccc32)N1 (stereo not given),IC50,[8],1660 nM
Cc1cc(=O)oc2cc(OCc3cn(-c4ccc(S(=O)(=O)N5CCOCC5)cc4)nn3)c(Cl)cc12,IC50,[9],50400 nM
C=CCn1cc(COc2ccc([C@@H]3[C@H](Oc4ccccc4)C(=O)N3c3ccccc3)cc2)nn1,IC50,[1],6190 nM
C=C[C@H]1CN2CC[C@H]1C[C@H]2[C@H](O)c1ccnc2ccc(OC)cc12 [QUININE],IC50,[8],83 nM
same,IC50,[2],0.268 µg/mL
C[C@H]1[C@H](OC(=O)CCC(=O)OCCCc2cn(-c3ccnc4cc(Cl)ccc34)nn2)O[C@@H]2O[C@@]3(C)CC[C@H]4[C@H](C)CC[C@@H]1[C@@]24OO3,EC50,[3],4.6 nM
same,EC50,[4],5.4 nM
same,EC50,[7],2.4 nM
CC1=C(C(=O)Nc2ccc(C(F)(F)F)cc2)C(c2ccc(OCc3cn(Cc4ccccc4)nn3)cc2)n2ncnc2N1 (stereo not given),IC50,[8],820 nM
OCc1cn(Cc2ccc(Cl)cc2)nn1,CC50,[5],88.6 µg/mL
same,IC50,[6],22.1 µg/mL
O=C1c2ccccc2C(=O)N1[C@H]1C(=O)N(c2ccc(OCc3cn(Cc4ccccc4)nn3)cc2)[C@@H]1c1ccc(OCc2cn(Cc3ccccc3)nn2)cc1,IC50,[1],1810 nM
CC1=C(C(=O)Nc2ccccc2C)C(c2ccc(OCc3cn(Cc4ccccc4)nn3)cc2)n2ncnc2N1 (stereo not given),IC50,[8],1860 nM
Clc1ccc2c(-n3cc(-c4ccccn4)nn3)ccnc2c1,IC50,[10],28000 nM
C[C@H]1[C@H](OCc2cn(-c3ccnc4cc(Cl)ccc34)nn2)O[C@@H]2O[C@@]3(C)CC[C@H]4[C@H](C)CC[C@@H]1[C@@]24OO3,EC50,[3],10.6 nM
same,EC50,[4],27.5 nM
same,EC50,[7],5.9 nM
Cc1cc(C)nc(NS(=O)(=O)c2ccc(-n3cc(COc4cc(=O)oc5ccccc45)nn3)cc2)n1,IC50,[9],> 79400 nM
C=CCn1cc(COc2ccc([C@@H]3[C@H](Oc4ccccc4)C(=O)N3c3ccc(C)cc3)cc2)nn1,IC50,[1],8430 nM
O=C1[C@@H](Oc2ccc(Cl)cc2Cl)[C@@H](c2ccc(OCc3cn(Cc4ccccc4)nn3)cc2)N1c1ccc(OCc2cn(Cc3ccccc3)nn2)cc1,IC50,[1],< 970 nM
CC1=C(C(=O)Nc2cccc(Cl)c2)C(c2ccc(OCc3cn(Cc4ccccc4)nn3)cc2)n2ncnc2N1 (stereo not given),IC50,[8],2240 nM
C[C@H]1[C@@H](OCCc2cn(-c3ccnc4cc(Cl)ccc34)nn2)O[C@@H]2O[C@@]3(C)CC[C@H]4[C@H](C)CC[C@@H]1[C@@]24OO3,EC50,[3],4.5 nM
same,EC50,[4],8.8 nM
same,EC50,[7],2 nM
NS(=O)(=O)c1ccc(-n2cc(COc3cc(=O)oc4ccccc34)nn2)cc1,IC50,[9],100000 nM
O=c1ccc2ccc(OCc3cn(-c4ccc(OCc5ccc([N+](=O)[O-])cc5)cc4)nn3)cc2o1,IC50,[2],1.2 µg/mL
C[C@H]1[C@@H](OCCCn2cc(-c3ccnc4cc(Cl)ccc34)nn2)O[C@@H]2O[C@@]3(C)CC[C@H]4[C@H](C)CC[C@@H]1[C@@]24OO3,EC50,[3],5.2 nM
same,EC50,[4],9.4 nM
same,EC50,[7],3.8 nM
CC1=C(C(=O)Nc2ccc(C(F)(F)F)cc2)C(c2ccc(OCc3cn(Cc4ccccc4)nn3)cc2)n2c(nc3ccccc32)N1 (stereo not given),IC50,[8],2860 nM
Br.O=[N+]([O-])c1ccc(Cn2cc(-c3ccccc3C[P+](c3ccccc3)(c3ccccc3)c3ccccc3)nn2)cc1,CC50,[5],> 100 µg/mL
same,IC50,[6],> 100 µg/mL
O=c1cc(OCc2cn(-c3ccc(S(=O)(=O)N4CCOCC4)cc3)nn2)c2ccccc2o1,IC50,[9],34200 nM
Cc1nc(-c2ccccc2)c(-c2ccccc2)c2cc(-c3cn(CCOC(=O)CCC(=O)O[C@@H]4O[C@@H]5O[C@@]6(C)CC[C@H]7[C@H](C)CC[C@@H]([C@H]4C)[C@@]57OO6)nn3)ccc12,EC50,[3],4.8 nM
same,EC50,[4],5.3 nM
same,EC50,[7],3.3 nM
CC1=C(C(=O)Nc2ccccc2)C(c2ccc(OCc3cn(Cc4ccccc4)nn3)cc2)n2ncnc2N1 (stereo not given),IC50,[8],3120 nM
O=[N+]([O-])c1ccc(Cn2cc(-c3ccccc3CBr)nn2)cc1,CC50,[5],> 100 µg/mL
same,IC50,[6],> 100 µg/mL
CCCCc1nc(C)c2ccc(-c3cn(CCOC(=O)CCC(=O)O[C@@H]4O[C@@H]5O[C@@]6(C)CC[C@H]7[C@H](C)CC[C@@H]([C@H]4C)[C@@]57OO6)nn3)cc2c1CCCC,EC50,[3],10 nM
same,EC50,[4],9.2 nM
same,EC50,[7],4.2 nM
CC1=C(C(=O)Nc2ccc(C)cc2)C(c2ccc(OCc3cn(Cc4ccccc4)nn3)cc2)n2c(nc3ccccc32)N1 (stereo not given),IC50,[8],1920 nM
C[C@H]1[C@H](OC(=O)CCC(=O)OCCc2cn(-c3ccnc4cc(Cl)ccc34)nn2)O[C@@H]2O[C@@]3(C)CC[C@H]4[C@H](C)CC[C@@H]1[C@@]24OO3,EC50,[3],4.9 nM
same,EC50,[4],8 nM
same,EC50,[7],2.6 nM

# Source: ChEMBL document CHEMBL5512597, “Triazole hybrid compounds: A new frontier in malaria treatment” (Eur J Med Chem, 2023)
